Experimental data as given in paper PMC4657974, “Positive Allosteric Modulation of Kv Channels by Sevoflurane: Insights into the Structural Basis of Inhaled Anesthetic Action” (PLoS ONE, 2015).

Tests used:
Assay type in all cases: cell-based
K-Shaw2 [1] = molecular target: T1, K-Shaw2 (Drosophila melanogaster, UniProt P17972); test: two-electrode voltage clamp, Xenopus oocytes, Hill fit; settings: inhibition; pH 7.4; 21-23 °C; voltage not given; read-out: K 1; cited from earlier work
T1 construct: gene Shaw; full-length channel, homotetramer, expressed in Xenopus oocytes from cRNA
T1 sequence (P17972 1-498): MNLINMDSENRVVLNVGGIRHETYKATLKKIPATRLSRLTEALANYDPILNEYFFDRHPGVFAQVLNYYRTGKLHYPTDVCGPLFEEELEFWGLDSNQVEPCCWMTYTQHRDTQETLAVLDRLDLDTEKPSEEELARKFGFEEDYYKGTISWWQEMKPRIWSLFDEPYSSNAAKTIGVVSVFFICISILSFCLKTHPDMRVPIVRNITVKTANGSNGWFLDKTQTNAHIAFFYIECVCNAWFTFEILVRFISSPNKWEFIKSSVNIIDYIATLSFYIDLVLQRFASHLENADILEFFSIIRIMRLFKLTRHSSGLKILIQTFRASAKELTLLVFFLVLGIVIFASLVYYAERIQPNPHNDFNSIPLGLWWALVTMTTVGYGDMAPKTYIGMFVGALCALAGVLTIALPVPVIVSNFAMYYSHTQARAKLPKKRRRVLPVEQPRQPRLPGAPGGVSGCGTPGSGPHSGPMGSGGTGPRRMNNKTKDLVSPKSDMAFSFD
Text: two-electrode voltage clamp, Xenopus oocytes, Hill fit on K-Shaw2

ΔT1-K-Shaw2 = molecular target: T2, ΔT1-K-Shaw2 (Drosophila melanogaster, UniProt P17972, DEL2-155); test: as above; settings: read-out: K 1
T2 construct: gene Shaw; T1 domain deleted (lacks residues 2-155), homotetramer, expressed in Xenopus oocytes
T2 sequence (P17972 with tags, fused parts or gaps DEL2-155): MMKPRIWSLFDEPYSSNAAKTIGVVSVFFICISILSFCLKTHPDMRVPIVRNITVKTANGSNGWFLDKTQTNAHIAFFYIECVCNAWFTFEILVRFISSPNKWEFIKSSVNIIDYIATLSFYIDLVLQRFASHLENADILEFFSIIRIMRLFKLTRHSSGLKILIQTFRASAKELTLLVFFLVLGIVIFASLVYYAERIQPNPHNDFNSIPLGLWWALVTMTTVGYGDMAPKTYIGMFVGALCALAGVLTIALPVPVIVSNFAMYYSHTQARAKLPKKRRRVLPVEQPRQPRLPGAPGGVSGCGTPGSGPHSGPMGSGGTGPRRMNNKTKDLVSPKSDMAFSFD
Text: two-electrode voltage clamp, Xenopus oocytes, Hill fit on ΔT1-K-Shaw2

K-Shaw2 [2] = molecular target: T1, K-Shaw2; test: two-electrode voltage clamp, Xenopus oocytes, double Hill fit; settings: read-out: K 1
Text: two-electrode voltage clamp, Xenopus oocytes, double Hill fit on K-Shaw2 | Solid line is the best-fit double Hill equation to the K-Shaw2 data

EC50 (K-Shaw2 [2]) [µM]	Structure (SMILES)	IC50 (K-Shaw2 [1]) [µM]	IC50 (ΔT1-K-Shaw2) [µM]
	ClC(Cl)Cl [chloroform]	700	
	FC(F)(F)C(Cl)Br (centres unmarked) [halothane]	260	380
	FC(F)OC(Cl)C(F)(F)F (centres unmarked) [isoflurane]	1690	
	CCCCO [n-butanol]	10100	16400
	CC(C)c1cccc(C(C)C)c1O [propofol]	60	
80	FCOC(C(F)(F)F)C(F)(F)F [sevoflurane]		
